Laboratory results from publication PMC6058720, “Dual-ligand modified liposomes provide effective local targeted delivery of lung-cancer drug by antibody and tumor lineage-homing cell-penetrating peptide” (Drug Delivery, 2018).
Values after ≈ are worked out from the molar mass of the structure shown.

How the values were obtained:
[1] = Pharmacokinetics study after pulmonary (endotracheal) administration to rats; design: species or system Sprague Dawley rats; conditions: rat, in vivo, 0.5 mg/kg
Description: Sprague–Dawley (SD) rats were divided randomly into five groups (n = four per group). Rats were fasted for 12 h before the experiment, but allowed water ad libitum. Free TPL, TPL-lip, CPP33-TPL-lip, CA IX-TPL-lip, and dl-TPL-lip were administered directly via pulmonary delivery using a Microsprayer Aerosolizer Pulmonary Aerosol Kit for Mouse Model PAK-MSA (Penn-Century, Inc. Wyndmoor, PA19038, USA) at a dose of 0.5 mg/kg. Blood samples (0.4 mL) were obtained before dosing and at designated time points (0.083, 0.5, 1, 2, 4, 6, 8, 12 h). The samples were collected into heparinized tube from the suborbital veins and were centrifuged for 10 min at 4,000 rpm. The plasma was analyzed by Agilent 1290 Ultra High Performance Liquid Chromatograph with Agilent 6460 Triple Quadrupole Mass Spectrometer system (UHPLC-QQQ MS/MS, Santa Clara, USA) (Xue et al., [2012]; Zhuang et al., [2013]).
The TPL pharmacokinetic parameters in […] after endotracheal administration were calculated and summarized by DAS 2.1.1. Statistical analyses for anti-cancer effect study were evaluated by two-way ANOVA with Bonferroni posttests using GraphPad Prism 6 (GraphPad Software, Inc, La Jolla, USA). […]
44 Analytical method for pharmacokinetics study
45 Hydrocortisone was added (50 μL, 200 ng/mL) as an internal standard (IS) to 0.2
46 mL of plasma. The samples were mixed, and extracted with ethyl acetate (750 μL)
47 followed by vortexing for 4min and centrifuging for 10min at 8000 rpm. The upper
48 organic phase was carefully transferred and e vaporated to dryness in vacuum. The
49 residues were dissolved in 100μL methanol and centrifuged at 4000rpm for 10 min,
50 then the supernatant was collected and injected into the Agilent 1290 Ultra High
51 Performance Liquid Chromatograph with Agilent 6460 Triple Quadrupole Mass
52 Spectrometer system (UHPLC-QQQ MS/MS).
53 Chromatography conditions: Waters Acquity BEH C18 (2.1×50 mm); Mobile phase
54 0.1% formic acid in water: 0.1% formic acid in acetonitrile =80:20 v/v; Flow rate 0.35
55 mL/min; Running time 10 min.
56 Mass spectrometer conditions: Ion Source Agilent Jet Stream electro spray
57 ionization (AJS ESI); Positive mode; Gas Temperature 300 °C; Gas flow rate 8 L/min;
58 Nebulizer 40 psi; SheathGasHeater 350°C; SheathGasFlow 8 L/min; Capillary 3500
60 Firstly, optimization of mass spectrometry was initiated by automatic tuning of the
61 instrument (Figure S1). Method validation was conducted before the sample analysis.
62 The specificity of the established method was assessed by comparing the
63 chromatograms of blank plasma, blank plasma with TPL, blank plasma with IS, and
64 plasma after endotracheal administration (Figure S2). The calibration curve in rat
65 plasma was linear over the ranges 10-2500 ng/mL in rat plasma (y=0.375035x +
67 accuracy and precision both intra-day and inter-day were less than 10%. The method
68 was sufficiently accurate and consistent for proceeding for the biological analysis of
69 TPL (Table S1). Therefore, the established method was applied to the analysis of rat

[2] = test system: orthotopic lung tumor (A549-Red-FLuc cells); assay: Anti-cancer effect in orthotopic mice model of lung cancer (bioluminescence imaging); assay type: in vivo, BALB/c nu/nu mice; conditions: pulmonary delivery, 0.3 mg/kg, four doses; control increased ∼6-fold; n = 5
Description: An orthotopic lung tumor-bearing mice model was established as previously reported. Briefly, the male BALB/c nu/nu mice (7–8 weeks) were anesthetized with 5% of chloral hydrate and 100 μL of A549-Red-FLuc cells (2 × 10^6 cells) solution in Matrigel (1:1). Experimental solutions were injected percutaneously into the right lateral thorax of each mouse using a 1 mL syringe with 29-gauge needle. On day seven after tumor cell inoculation, bioluminescence was measured using the IVIS Lumina XR system (Caliper, Hopking, MA) to check the successful establishment of lung cancer. D-luciferin substrate (i.p., 150 mg/kg in 0.9% saline solution) was injected 15 min before bioluminescence imaging. On day 19 after tumor cell inoculation, the mice were sacrificed and lungs were immediately resected.
On day seven following tumor cells inoculation, the orthothopic lung tumor-bearing mice (n = 30) were grouped into six treatment groups based on equivalent signal intensity of the tumor bioluminescence: Free TPL, TPL-lip, CA IX-TPL-lip, CPP33-TPL-lip, dl-TPL-lip, and control group with saline. […] Tumor growth was monitored weekly by bioluminescence imaging as before, during, and after the TPL treatment. Body weight of the mice was recorded weekly during the course of the study. […]
The TPL pharmacokinetic parameters in mice after endotracheal administration were calculated and summarized by DAS 2.1.1. […]

[3] = In vitro drug release study (dialysis, PBS pH 7.4); assay type: physicochemical; conditions: PBS pH 7.4, 37 °C, over 96 h, dialysis under sink conditions
Description: Briefly, 1 mL of dl-TPL-lip, CA IX-TPL-lip, CPP33-TPL-lip, TPL-lip, and free TPL solution (0.05 mg/mL) was placed into dialysis tubes with a molecular cut-off of MWCO 12–14 kDa and dialyzed in 10 mL of PBS (pH 7.4) at 37 °C. At predetermined time intervals, 100 μL of release medium was taken out and replaced with equal volume of fresh medium. The concentration of TPL in release medium was then determined by UPLC.

[4] = design: method as in Chen et al., [2012a]; Reno et al., [2015]; Li et al., [2016]; conditions: ref Chen et al., [2012a]; Reno et al., [2015]; Li et al., [2016]; cited from earlier work
[5] = Sprague-Dawley, inhaled or intranasal, endotracheal administration, plasma TPL, n = 4

Q: With `CC(C)[C@]12O[C@H]1[C@@H]1O[C@]13[C@]1(O[C@H]1C[C@H]1C4=C(CC[C@@]13C)C(=O)OC4)[C@@H]2O` [Free TPL, Triptolide] as the compound, how does the AUC(0-inf) [1, 5] read?
A: Its AUC(0-inf) is 0.225 ± 0.0638 µg·h/mL.

Q: What about the AUC(0-t) [1, 5] of the same compound?
A: The AUC(0-t) was 0.186 ± 0.0365 µg·h/mL.

Q: What about the Cmax [1, 5] of the same compound?
A: The Cmax was 0.188 ± 0.0427 µg/mL.

Q: What about the Tmax [1, 5] of the same compound?
A: The Tmax was 4.98 min.

Q: And the “Cmax of TPL in blood compared to liposomal TPL” value [1]?
A: The value was “three-fold higher”.

Q: What about the t1/2 [1] of the same compound?
A: Its t1/2 is 2.98 ± 0.54 H.

Q: And the “Increase of tumors (bioluminescence) on day 31” value [2]?
A: The value was ~3 fold.

Q: And the TPL release profile [3]?
A: Its TPL release profile is “rapid release profile”.

Q: And the Solubility in water [4]?
A: The Solubility in water was 0.017 mg/mL (≈ 47.2 µM).
